Results published in patent US11629359B2, “Plasma membrane intrinsic aquaporin for absorbing and transporting neonicotinoid insecticides, and coding gene and use therefor” (JIANGSU ACADEMY OF ARGRICULTURAL SCIENCES, priority 2020, dated 2023).

Key:
[1] = system: Chinese cabbage plants; details: 2 mg/L in Hoagland nutrient solution, mercuric chloride and glycerol of different concentrations, 48 h
[2] = system: Saccharomyces cerevisiae INVSc1 (pYES2-BraPIP2;1); test: Thiamethoxam content of recombinant yeast strain; type: cell-based; details: 30° C., 6 h
Text: (§1) The BraPIP2;1 gene cloned in Example 1 was constructed into the Saccharomyces cerevisiae overexpression vector pYES2 (purchased from Clotech) referring to (He Lin, Jiang Lili, Wang Yucheng, Analysis of the stress tolerance of Tamarix thioredoxin peroxidase (ThPrx1) gene transformed into yeast, Journal of Northeast Forestry University, 2011, Vol. 39. No. 4, 101-104), and the constructed recombinant plasmid was named pYES2-BraPIP2;1. The pYES2-BraPIP2;1 and an empty vector pYES2 were transformed into Saccharomyces cerevisiae INVSc1 by lithium acetate precipitation. The recombinant yeasts were named INVSc1 (pYES2-BraPIP2;1) and INVSc1 (pYES2), respectively.
(§2) Induction of recombinant strains: Single colonies of the control yeast INvsc1 (pYES2) and the recombinant yeast INvsc1 (pYES2-BraPIP2;1) were picked, inoculated in an SC-U liquid medium (with glucose of a final concentration of 2%) respectively, and incubated at 30° C. for 24 h on a shaker. The OD600 value is measured, and the amount of bacterial solution required is calculated such that the OD600 of bacteria in 10 ml of induction medium (SC-U+2% galactose) is 0.4. Induce expression was carried out at 30° C. for 24 h. The OD600 value was measured again, and the amount of bacterial solution required was calculated. […]

[3] = system: Saccharomyces cerevisiae INVSc1 (pYES2); test: Thiamethoxam content of control yeast strain; type: cell-based; details: 30° C., 6 h
Text: as §1, §2

[4] = system: BraPIP2;1 overexpression Arabidopsis thaliana; test: Thiamethoxam content of BraPIP2;1 transgenic Arabidopsis thaliana plants; type: in vivo; details: soil containing 10 mg/L thiamethoxam, 20 days
Text: (§3) The BraPIP2;1 gene cloned in Example 1 was constructed into the plant binary overexpression vector pCAMBIA2301 (purchased from Clotech). By the Agrobacterium tumefaciens-mediated method (Valvekens, D., van Montagu, M., and Lijsebettens, M. V. (1988). Agrobacterium tumefaciens-mediated transformation of Arabidopsis thaliana root explants by using kanamycin selection. Proc. Natl. Acad. Sci. USA 85, 5536-5540.), the inflorescence of wild-type Arabidopsis thaliana Col-0 (purchased from ATCC, USA) was infected with the constructed overexpression vector. Through screening (resistance pure line seedlings were screened on a 1/2MS plate containing 50 μg/mL kanamycin), BraPIP2;1 overexpression Arabidopsis thaliana pure line materials BraPIP2;1#3 and BraPIP2;1#5 were identified and obtained.
In addition, germinated seedlings of the same size were transplanted into soil containing 10 mg/L thiamethoxam, and after 20 days of culture, the root and aboveground samples of the transgenic Arabidopsis thaliana and the control were harvested respectively, washed with deionized water, and weighed.

[5] = system: BraPIP2;1 overexpression Arabidopsis thaliana; test: Main root length of BraPIP2;1 transgenic Arabidopsis thaliana under thiamethoxam; type: in vivo; details: 1/2MS media with 10 and 50 mg/L thiamethoxam, 20 days
Text: as §3
The pure line seeds of the BraPIP2;1#3 and BraPIP2;1#5 obtained in the previous transgenic experiment and a wild-type Col-0 material (WT) were germinated on a 1/2MS medium respectively, and then transferred to 1/2MS media (Qingdao Hopebio Co., Ltd., Item No. HB8469-12, PH=5.6) containing 10 and 50 mg/L thiamethoxam respectively. After 20 days, the growth of the seedlings was observed and the main root length was measured.

[6] = system: Saccharomyces cerevisiae INVSc1 (pYES2-BraPIP2;1); test: Growth of recombinant yeast strains under thiamethoxam stress; type: cell-based; details: thiamethoxam 10-1600 mg/L, stress at 30° C. for 72 h
Text: as §1, §2

[7] = system: BraPIP2;1; test: Response of BraPIP2;1 gene expression to thiamethoxam (quantitative RT-PCR); type: in vivo, Chinese cabbage; details: 10 mg/L thiamethoxam, 6 hours and 24 hours, p<0.001
Protocol: Seedlings of Chinese cabbage with the same growth condition were put in a Hoagland's nutrient solution containing 10 mg/L thiamethoxam (the Hoagland's nutrient solution was purchased from Beijing Coolaber Technology Co., Ltd.), and treated in the Hoagland's nutrient solution for 6 and 24 hours (treatment group).
At the same time, a Hoagland's nutrient solution without thiamethoxam was used as the control group.
Treated root and aboveground tissue RNA of two groups was extracted respectively, the 1st strand cDNA was obtained by reverse transcription as a template, specific expression primers were designed based on the cDNA sequence of BraPIP2;1, the Chinese cabbage Tublin was used as an internal reference, and the expression of the gene transcription level was detected by quantitative RT-PCR.
The quantification instrument is 7500 Real Time PCR System (Applied Biosystem), and a qPCRT system was configured according to the instructions of a kit 2×TSINGKE Master qPCR Mix (Tsingke Biotechnology Co., Ltd.). The PCR program is: pre-denaturation at 95° C. for 10 min, at 95° C. for 15s, and at 60° C. for 20 s, for 40 cycles.

| Structure (SMILES) | content of the compound in the plants after water channel inhibitors were added [1] | thiamethoxam content of the recombinant strain ([2]; 10 mg/L thiamethoxam) | thiamethoxam content of the recombinant strain ([2]; 100 mg/L thiamethoxam) | thiamethoxam content of the control strain ([3]; 10 mg/L thiamethoxam) | thiamethoxam content of the control strain ([3]; 100 mg/L thiamethoxam) | thiamethoxam content of the roots and aboveground parts of the transgenic plant versus wild plant [4] | main root length of the transgenic strain versus wild type [5] | growth of transgenic strain (pYES2-BraPIP2;1) versus wild strain (pYES2) with thiamethoxam [6] | expression abundance of BraPIP2;1 in the roots and aboveground parts compared with the control [7] |
| --- | --- | --- | --- | --- | --- | --- | --- | --- | --- |
| CN1CCCC1c1cccnc1 (stereo not drawn) [nicotine] | did not change significantly | – | – | – | – | – | – | – | – |
| CN1COCN(Cc2cnc(Cl)s2)/C1=N\[N+](=O)[O-] [thiamethoxam] | – | 0.0071 ng/OD | 0.028 ng/OD | 0.0038 ng/OD | 0.011 ng/OD | higher than that of the wild plant | shorter than that of the wild type | grows significantly weaker than the wild strain | significantly increased |
